Laboratory results: patent US11827690B2, “ApoC-II mimetic peptides” (THE UNITED STATES OF AMERICA, as represented by the …, priority 2017, dated 2023)

What was measured:
[1] = target: T1, LPL inhibited by apoC-III (Bos taurus, UniProt P11151); experiment: LPL activation assay with Intralipid as substrate and recombinant apoC-III as an inhibitor; type: biochemical; settings: Intralipid substrate, FIG. 31
T1 sequence (P11151 29-478): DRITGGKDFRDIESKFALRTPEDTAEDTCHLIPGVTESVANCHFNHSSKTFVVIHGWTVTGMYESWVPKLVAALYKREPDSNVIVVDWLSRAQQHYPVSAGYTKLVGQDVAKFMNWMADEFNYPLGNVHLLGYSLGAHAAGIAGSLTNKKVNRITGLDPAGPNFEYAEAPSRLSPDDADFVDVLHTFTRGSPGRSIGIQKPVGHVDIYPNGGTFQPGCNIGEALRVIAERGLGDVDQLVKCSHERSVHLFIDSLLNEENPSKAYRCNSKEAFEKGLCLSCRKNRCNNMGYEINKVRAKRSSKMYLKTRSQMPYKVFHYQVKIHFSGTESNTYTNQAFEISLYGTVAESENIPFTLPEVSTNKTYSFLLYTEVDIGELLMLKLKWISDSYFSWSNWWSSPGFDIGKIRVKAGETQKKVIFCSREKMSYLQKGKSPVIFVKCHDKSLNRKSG
Procedure: (§1) LPL activity assay: 10 μL of Intralipid, human plasma sample, or mouse plasma sample was added in each well using repeater pipette. 10 μL (or 15 μL in the wells with no LPL control) of PBS and 10 μL of 1% BSA was added in each well using repeater pipette. 10 μL of peptides were added to corresponding wells in vertical triplicates (lowest concentration is on a left, highest is on the right). The plate was spun down at 1000 RPM for 10 seconds to mix and to remove the solutions from the wall of each well. The plate was put on ice and 5 μL of LPL was added using repeater pipette. The plate was spun down again at 1000 RPM for 10 seconds. The plate was covered and put back on ice for an incubation of 30 min. The plate was then moved to 37° C. and incubated for 1 hour.
(§2) Free fatty acids (NEFA) assay: 45 μL of 5 nmoL standard and 0 nmoL control (0.2% BSA) were added to corresponding wells. 225 μL of reagent A was added in each well using the reagent tray and 12-channel pipette. The plate was incubated for 10 min before 75 μL of reagent B was added to each well using the reagent tray and 12-channel pipette. The plate was not covered due to the high volume. The absorbance at 550 nm and 660 nm was measured.
(§3) LPL assay was performed using Intralipid, high TG human plasma (1:50 dilution), or apoC-III transgenic mouse plasma (1:50 dilution). When Intralipid was used as a substrate, 25 or 50 μM recombinant ApoC-III was added as an inhibitor. When the high TG human plasma was used as a substrate, 25 or 50 μM recombinant ApoC-III was added as an inhibitor with or without pre-incubation at 37° C. for 1 hour. An apoC-II mimetic peptide was added at various concentrations.

C57BL/6 mice (wild-type) = experiment: post-prandial serum TG in C57BL/6 mice after oral gavage with vegetable oil; type: in vivo; settings: 1 μmoL/kg IP or SQ 30 min before gavage with vegetable oil (10 μL/gram)
Procedure: (§4) C57Bl/6 mice (wild-type), apoC-II knockout (apoC-II KO) mice, and apoC-III transgenic mice were used for in vivo study. The C57Bl/6 mice (wild-type) were purchased from Taconic Biosciences Inc. The apoC-II KO mice were created as described in Sakurai et al., J Pharmacol Exp Ther 356:341-353, 2016. The apoC-III transgenic mice were generated by overexpressing human apoC-III in C57Bl/6 mice. See Qu et al., J. Lipid Res. 48:1476-1487, 2007.
(§5) Mice were fasted overnight (approximately 12 hours) before the study and 6 hours during the study, the next day. The apoC-II mimetic peptides were synthetically produced and free of biological contamination (not available as FDA approved compounds/treatment). Peptides were produced and used in sterile conditions and filtered by 0.2 nm filter before injections in a single dose 1-10 μmol/kg body weight (B. W.) administered either subcutaneous injection (S.Q. or S.C.), intraperitoneal injection (I.P.) or intravenous injection (I.V.) (in a sterile, pharmaceutical grade PBS solution at a volume ≤200 μL) as described in Sakurai et al., J Pharmacol Exp Ther 356:341-353, 2016.
In some experiments, each animal received 20% Intralipid (FDA approved, Fresenius Kabi, Uppsala, Sweden) in a single dose either by oral gavage (using special sterile single-use non-toxic animal feeding needles) in a dose 10-20 μL/gram body weight (B.W.) (Tuzcu et al. Drug Chem Toxicol 37: 261-267, 2014; Kusminski et al. Nature Medicine 18: 1539-1549, 2012), or by intraperitoneal injection in a single bolus of 0.1-1.0 mL (Mahadero et al. American J Surgery 164: 45-50, 1992), or by intragastric administration of a dietetic commercially-available liquid oil (food grade vegetable, corn, soy or olive oil) in a single dose 10-20 μL/gram body weight. These oils were a source of TG—when absorbed TG tends to be broken down within 3 h (peak in 30 min) (Kritchevsky Nutritional Biochemistry 6:172-178, 1995). Blood samples (20-30 μL) were obtained from the retro-orbital plexus at time points: −1 h, 0 h, 1 h, 3 h, 6 h and 24 h for measurements of lipids. Mice were returned to metabolic cages after the 6 h time point where the food was put back. Once the study was completed (after 24 hours from the fat administration), mice were euthanized and organs collected.

[2] = target: T1, LPL inhibited by apoC-III; experiment: LPL activation assay using apoC-III transgenic mice plasma as substrate; type: biochemical; set-up: host or cells: apoC-III comes with the plasma of apoC-III transgenic C57Bl/6 mice; settings: all three transgenic mice plasma samples, FIG. 33
Procedure: as §1, §2
LPL assay was performed using Intralipid, high TG human plasma (1:50 dilution), or apoC-III transgenic mouse plasma (1:50 dilution). […]

[3] = target: T1, LPL inhibited by apoC-III; experiment: LPL assay using human apoC-II deficient plasma as substrate with recombinant apoC-III; type: biochemical; settings: 25 μM apoC-III, FIG. 50
Procedure: as §1, §2, §3

apoC-III transgenic mice = experiment: plasma TG and apoC-III of apoC-III transgenic mice after peptide injection; type: in vivo
Procedure: as §4, §5

[4] = ELISA, 5 μmole/kg, Day 1 and Day 5, 3 h after injection

Sequence | effect on inhibition of LPL by apoC-III [1] | effect on inhibition of LPL by apoC-III ([1]; listed as ApoC-II-a) | post-prandial TG rise (C57BL/6 mice (wild-type)) | effect on inhibition by elevated expression of apoC-III [2] | effect on inhibition by elevated expression of apoC-III ([2]; listed as ApoC-II-a) | effect on inhibition of LPL by apoC-III [3] | apoC-III level on HDL (apoC-III transgenic mice; [4]) | apoC-III level on VLDL (apoC-III transgenic mice; [4]) | plasma TG compared to control (apoC-III transgenic mice; repeat IP injection at 24 h intervals for 5 days, 5 μmole/kg, 1 h, 3 h, 6 h after injection on Day 1 and Day 5) | plasma TG (apoC-III transgenic mice; single intraperitoneal injection, 1, 5 and 10 μmole/kg, FIG. 38B) | time of maximum decrease of plasma TG (apoC-III transgenic mice; single intraperitoneal injection, after the injection)
DWLKAFYDKVAEKLKEAFPAMSTYTGIFTDQVLSVLKGEE (listed as Homo sapiens) [apoC-II-a, excluded from the claimed peptides] | overcame the inhibitory effect of apoC-III and facilitated lipolysis in a dose-dependent manner | overcomes the inhibition by apoC-III | almost completely blunted | overcame the inhibitory effect of elevated expression of apoC-III | overcomes the inhibitory effect of elevated expression of apoC-III | – | – | – | – | – | –
DYLKEVFEKLRDLYEKFTPAVSTYTGIFTDQVLSVLKGEE [Delta6PV] | – | – | – | – | – | overcame the inhibitory effect of apoC-III and facilitated lipolysis | decreased | decreased | lower plasma TG | rapid and marked reduction of plasma TG | about 6 hours
